For series [1] the following is noted: for Normal melting temperature: DTA; for Triple point temperature: Crystal 2, DSC.
Series [2] is described as follows: Molar enthalpy of transition or fusion. The conditions noted are these: DSC.

± gives the expanded uncertainty stated by the source.

In the case of `CCCCCCCCCCCCCCCCCCCCO` [1-eicosanol], the Normal melting temperature in series [1] (Crystal) came out at 63.8 ± 0.53 °C. Further, in series [2] (Crystal), the “Molar enthalpy of transition or fusion” value was 17 ± 2.08 kcal/mol.
Take `CCCCCCCCCCCCCCCCCCO` [1-octadecanol]: in series [1] (Crystal 1), the Normal melting temperature was 56.2 ± 0.53 °C. The Triple point temperature in series [1] is 319.35 ± 0.81 K. Also, the figures for the “Molar enthalpy of transition or fusion” value in series [2] (Crystal 1) and in series [2] (Crystal 2) were 12.4 ± 1.51 kcal/mol and 6.54 ± 0.789 kcal/mol, respectively.
Regarding `c1ccc(-c2ccccc2)cc1` [biphenyl], in series [1] (Crystal), the Normal melting temperature is 68.0 ± 0.53 °C. Moreover, the “Molar enthalpy of transition or fusion” value in series [2] (Crystal) was found to be 4.66 ± 0.574 kcal/mol.
In the same order, the values of `CCCCCCCCCCCCCCCCCCCC` [eicosane] are 35.03 ± 0.53 °C and 17.3 ± 2.1 kcal/mol.
With `CCCCCCCCCCCCCCCCCCCCCCCC` [tetracosane], in series [1] (Crystal 1), the Normal melting temperature was found to be 48.06 ± 0.53 °C. In series [1], the Triple point temperature is given as 319.35 ± 0.81 K. Also, the “Molar enthalpy of transition or fusion” value worked out at 14.6 ± 1.77 kcal/mol in series [2] (Crystal 1) and 8.08 ± 0.98 kcal/mol in series [2] (Crystal 2).

(Values after the NIST ThermoML archive (doi:10.1016/j.fluid.2017.03.012).)
